Experimental data as given in EP1009837B1 (priority 1997, dated 1999).

Experiments:
S. cerevisiae = settings: typical low concentration; background statement; cited from earlier work
FY23Δpet191 = tested on: FY23Δpet191
Method: (§1) Strain-specific ethanol tolerances were determined in batch cultures in specially adapted 100ml Erienmeyer flasks (called Klett Flasks) in combination with the Klett Summerson colorimeter and a green filter (Klett Summerson, USA). Cultures were grown to early exponential phase overnight and then split into 18ml aliquots to which 2ml of either sterile distilled water or ethanol solution were added to the aliquots giving final concentrations of 0, 2,3,4,6 and 10% (w/v) ethanol. Each concentration was carried out in triplicate and hourly measurements were made of cell density. A 1ml sample was extracted from the flask, diluted and plated onto YPD for a viable cell count. The remainder of the sample was centrifuged (15,000 rpm, 4°C, 5 min) and the supernatant frozen for subsequent analysis of ethanol concentration by GC.
(§2) All four members of the isogenic series (FY23WT, FY23Δpet191, FY23Δcox5a and FY23ρ^0) were grown in batch culture at 30°C and ethanol, at various concentrations, was introduced at the beginning of the exponential phase. Cell growth was followed for eight hours measuring optical densities with a Klett meter.
(§3) Graphs were plotted of loge Klett units against elapsed time and linear regression analysis was performed to calculate culture specific growth rates, µ. The effect of ethanol on the growth rate of the 4 members of the series was analysed by comparing relative growth rates at each ethanol concentration, and calculating these as a percentage of the growth rate in the absence of ethanol.
(§4) Ethanol inhibition kinetics are thought to follow those of non-competitive inhibition and can be modeled using a variant of the Monod equation. From the specific growth rate values calculated, it is possible to determine values of Ki by inserting them into the rearranged equation [µm/µi - 1 = I. 1/Ki]. […] The initial values of µ calculated are µapparent values determined from the growth of a culture containing both living and dead cells.

FY23WT = settings: strain FY23WT (grande parent); batch culture 30°C; exogenous ethanol 0-10% (w/v); µ corrected for viability
Method: as §1, §2, §3, §4

FY23Δcox5a = tested on: FY23Δcox5a
Method: as §1, §2, §3, §4

FY23ρ^0 = tested on: FY23ρ^0
Method: as §1, §2, §3, §4

| Structure (SMILES) | concentration to which S. cerevisiae is sensitive (S. cerevisiae) | Ki as percentage of the wild-type value (FY23Δpet191; FY23Δpet191, Ki relative to FY23WT) | Ki (true growth rate) (FY23Δpet191; strain FY23Δpet191 (nuclear petite), batch culture 30°C, µ corrected for viability) | Ki (true growth rate) (FY23WT) | ethanol tolerance relative to the wild-type strain (FY23Δcox5a; FY23Δcox5a, Ki as percentage of FY23WT) | Ki (true growth rate) (FY23Δcox5a; strain FY23Δcox5a (nuclear petite), batch culture 30°C, µ corrected for viability) | ethanol tolerance relative to FY23 WT (FY23ρ^0; mitochondrial petite, Ki as percentage of FY23WT) | Ki (true growth rate) (FY23ρ^0; strain FY23ρ^0 (mitochondrial petite), batch culture 30°C, µ corrected for viability) |
| --- | --- | --- | --- | --- | --- | --- | --- | --- |
| C[C@@H]1C[C@@H]([C@H](O)CC2CC(=O)NC(=O)C2)C(=O)[C@@H](C)C1 [cycloheximide] | ~0.2 µg/mL | – | – | – | – | – | – | – |
| CCO [ethanol] | – | approximately 95% | 2.14 % (w/v) | 2.30 % (w/v) | 86% | 1.94 % (w/v) | 76% | 1.71 % (w/v) |
